Tests used:
[1] = system: Human breast carcinoma UISO-BCA-1; experiment: Antitumor activity in Human Mammary UISO-BCA-1 xenografted in nude mice (3-arm dose-response); type: in vivo; details: for sensitivity of the UISO-BCA-1 xenograft to the agent: characterisation of the tumor model, monotherapy; for (T-C) days / CR / TFS d121 / log cell kill: acetocyclopropyl taxotere alone, day 17, 21, 25
Procedure: This efficacy may be quantified, for example, by the log10 cells killed, which is determined according to the following formula: […]
A product is considered to be active if log10 cells killed is greater than or equal to 0.7. A product is considered to be very active if log10 cells killed is greater than 2.8.
The combination, used at its own maximum tolerated dose, in which each of the constituents will be present at a dose generally not exceeding its maximum tolerated dose, will manifest therapeutic synergy when the log10 cells killed is greater than the value of the log10 cells killed of the best constituent when it is administered alone.
(§1) The animals subjected to the experiment, generally mice, are subcutaneously grafted bilaterally with 30 to 60 mg of a tumor fragment on day 0. The animals bearing tumors are mixed before being subjected to the various treatments and controls. In the case of treatment of advanced tumors, tumors are allowed to develop to the desired size, animals having insufficiently developed tumors being eliminated. The selected animals are distributed at random to undergo the treatments and controls. […] The different animal groups are weighed 3 or 4 times a week until the maximum weight loss is reached, and the groups are then weighed at least once a week until the end of the trial.
The tumors are measured 2 or 3 times a week until the tumor reaches approximately 2 g, or until the animal dies if this occurs before the tumor reaches 2 g. The animals are autopsied when sacrificed.
The tumor model used to evaluate each drug combination was selected, in general, on the basis of its responsiveness to each of the agents when used as monotherapy. Using i.v. intermittent schedules, full dose response trials were conducted for each single agent and each combination. In the present case, the selected tumor was a Human breast carcinoma UISO-BCA-1 derived from a malignant pleural effusion. The primary tumor was well-differentiated infiltrating ductal carcinoma of the breast. Radiotherapy post mastectomy was practiced. Three years after, chemotherapy to treat a left supraclavicular mass was done (10 courses with cytoxan, methotrexate, 5-Fu and Tamoxifen). […] This tumor model was established in nude mice from a 2.10^7 cell implant, and maintained by serial sc passage as tumor fragment.

[2] = Toxicity (drug deaths, body weight loss, highest non-toxic dose) in tumor-bearing nude mice; type: in vivo; details: for % bwl at nadir / Drug deaths: acetocyclopropyl taxotere alone, day 17, 21, 25
Procedure: as §1

[3] = iv 12.4 mg/kg/day (total 37.2 mg/kg)
[4] = iv 20.0 mg/kg/day (total 60.0 mg/kg)
[5] = iv 32.3 mg/kg/day (total 96.9 mg/kg)
[6] = iv 52.1 mg/kg/day (total 156.3 mg/kg)
[7] = single agent, iv day 17, 21, 25

O=c1[nH]cc(F)c(=O)[nH]1 [5-Fluorouracil, reference compound]
sensitivity of the UISO-BCA-1 xenograft to the agent [1]: sensitive

CC(=O)O[C@H]1C(=O)[C@]23C[C@H]2C[C@H]2OC[C@@]2(OC(C)=O)[C@H]3[C@H](OC(=O)c2ccccc2)[C@]2(O)CC(OC(=O)[C@H](O)C(NC(=O)OC(C)(C)C)c3ccccc3)C(C)=C1C2(C)C (some centres unmarked) [acetocyclopropyl taxotere]
% bwl at nadir [2, 3]: 0.5% | Drug deaths [2, 3]: 0/8 | % bwl at nadir [2, 4]: 0.5% | Drug deaths [2, 4]: 0/8 | % bwl at nadir [2, 5]: 5.2% | Drug deaths [2, 5]: 0/8 | % bwl at nadir [2, 6]: 7.2% | Drug deaths [2, 6]: 2/8 | highest non-toxic dose [2, 7]: 32.3 mg/kg per injection | highest non-toxic dose, total dose [2, 7]: 96.9 mg/kg | (T-C) days [1, 3]: 1.8 days | CR [1, 3]: 0/8 | TFS d121 [1, 3]: 0/8 | log cell kill [1, 3]: 0.1 | (T-C) days [1, 4]: 6.0 days | CR [1, 4]: 0/8 | TFS d121 [1, 4]: 0/8 | log cell kill [1, 4]: 0.4 | (T-C) days [1, 5]: 20.8 days | CR [1, 5]: 0/8 | TFS d121 [1, 5]: 0/8 | log cell kill [1, 5]: 1.3 | CR ([1]; iv 32.3 mg/kg/day (total 96.9 mg/kg), listed as acetyl cyclopropyl docetaxel): no regression | sensitivity of the UISO-BCA-1 xenograft to the agent [1]: sensitive

O=P1(N(CCCl)CCCl)NCCCO1 (centres unmarked) [cyclophosphamide, reference compound]
sensitivity of the UISO-BCA-1 xenograft to the agent [1]: poorly sensitive

CC(=O)O[C@@]12CO[C@@H]1C[C@H](O)[C@@]1(C)C(=O)[C@H](O)C3=C(C)[C@@H](OC(=O)[C@H](O)[C@@H](NC(=O)OC(C)(C)C)c4ccccc4)C[C@@](O)([C@@H](OC(=O)c4ccccc4)[C@H]21)C3(C)C [docetaxel, reference compound]
sensitivity of the UISO-BCA-1 xenograft to the agent [1]: resistant

COc1cccc2c1C(=O)c1c(O)c3c(c(O)c1C2=O)C[C@@](O)(C(=O)CO)C[C@@H]3O[C@H]1C[C@H](N)[C@H](O)[C@H](C)O1 [doxorubicin, reference compound]
sensitivity of the UISO-BCA-1 xenograft to the agent [1]: poorly sensitive

CC[C@]1(O)C[C@H]2CN(CCc3c([nH]c4ccccc34)[C@@](C(=O)OC)(c3cc4c(cc3OC)N(C=O)[C@H]3[C@@](O)(C(=O)OC)[C@H](OC(C)=O)[C@]5(CC)C=CCN6CC[C@]43[C@@H]65)C2)C1 [vincristine, reference compound]
sensitivity of the UISO-BCA-1 xenograft to the agent [1]: poorly sensitive
